Data: patent US12552846B2, “Modified BCL9 mimetic peptides” (Sapience Therapeutics, Inc., priority 2019, dated 2026)
Square brackets hold non-standard residues; d marks the D form. Peptide text beside a SMILES is read from it. * marks the point of attachment. dOrn = NCCC[C@@H](N)C(=O)O; Octanoyl = CCCCCCCC(=O)*

Assays:
MCF7 breast cancer cells = assay: MCF7 subcutaneous tumor model, tumor volume; assay type: in vivo, NU/J mice; details: for tumor volume relative to vehicle and to peptide control BCL-134: 1 mg/kg or 5 mg/kg s.c. three times weekly for three weeks, dosing from day 14, starting tumor about 340 mm^3, p≤0.0004
Experimental: In this experiment, we examined the effect of peptide BCL-26 on tumor volume in an MCF7 subcutaneous tumor model. Briefly, 2×10^6 MCF7 breast cancer cells, suspended 1:1 in Matrigel, were implanted via subcutaneous injection into the axilla of NU/J mice. Peptide BCL-26 was administered at a dose of 12.5 mg/kg via subcutaneous injection three times weekly for three weeks. Dosing was initiated on day 2 post tumor inoculation, with an average starting tumor volume of about 25 mm^3.
We also examined the effect of BCL9 mimetic peptides in established tumors. MCF7 cells were implanted into mice as described above. Peptide BCL-87 was administered at a dose of 5 mg/kg via subcutaneous injection three times weekly for three weeks. Dosing was initiated on day 21 post tumor inoculation, with an average starting tumor volume of about 470 mm^3.
We additionally examined the effect of different concentrations of mimetic peptides in established tumors. MCF7 cells were implanted into mice as described above. Peptides BCL-27 and BCL-87 were administered at a dose of 1 mg/kg or 5 mg/kg via subcutaneous injection three times weekly for three weeks. Dosing was initiated on day 14 post tumor inoculation, with an average starting tumor volume of about 340 mm^3.

[1] = system: HL60 promyelocytic leukemia cells; assay: Cytotoxicity assay in HL60 cells (Annexin V FITC / PI flow cytometry); assay type: cell-based; details: 48 hours; for EC50: 0-80 μM, % Viability (Annexin V low, PI low)
How it was run: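 HL60 cells at 3.5×10^3/well in RPMI + 1.5% FBS exposed to peptides at 0-80 μM final for 48 h at 37 °C. Viability by flow cytometry after Annexin V-FITC/PI staining, gated on FSC vs SSC. % Viability is the fraction that is Annexin V^low and PI^low.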

[2] = system: MCF-7 breast cancer cells; assay: MTT cell viability / anti-proliferative assay in MCF-7 cells; assay type: cell-based; details: MCF7 cells, compared to peptide ST-BC1
Experimental: MCF-7 breast cancer cells set at a density of 2.5×10^4 cells/well in 150 μL of MEM medium+10% fetal bovine serum (FBS) in a 96 well dish. Lyophilized BCL9 peptides were reconstituted at a concentration of 10 mg/mL in 270 mM trehalose buffer and added to each well at a volume of 50 μL to a final concentration range of 2.5-40 μM. Cells were incubated with BCL9 peptides for 96 hours at 37° C.
Cell viability was quantified by spectrophotometry using Roche MTT cell proliferation assay kit according to manufacturer's instructions. Briefly, cells were washed with PBS, and incubated in fresh MEM medium with 10% FBS, 1% penicillin/streptomycin, and 1% non-essential amino acids, plus 10 μL MTT reagent at 37° C. for 4 hours. After 4 hours, 100 μL of solubilization solution was added, and cells were incubated overnight at 37° C. and 5% carbon dioxide. Absorbance was measured at OD570 nm with a reference of OD650 nm. The degree of absorption is proportional to the number of living cells. Percentage of absorbance relative to untreated controls was quantified and presented as % Cell Viability.
In functional assays, EC50 is the concentration that reduces a biological response by 50% of its maximum. In the case of BLC9 peptides, EC50 is measured as the concentration that reduces cell viability by 50% of its maximum. EC50 can be calculated by any number of means known in the art.

Molecule	EC50 [1] [nM]	also measured
CSCC[C@@H](NC(=O)[C@@H](CC(C)C)NC(=O)[C@H](N)Cc1ccccc1)C(=O)N[C@H](CCCNC(=N)N)C(=O)N[C@H](CCC(N)=O)C(=O)N[C@H](CC(C)C)C(=O)N[C@H](CC(=O)O)C(=O)N[C@H](CCCNC(=N)N)C(=O)N[C@H](CC(C)C)C(=O)N[C@@H](C(=O)N[C@H](CCC(N)=O)C(=O)N[C@H](CC(C)C)C(=O)N[C@H](C)C(=O)N[C@H](CCCCN)C(=O)N[C@H](CC(C)C)C(=O)N[C@@H](C(=O)N1CCC[C@@H]1C(=O)N[C@@H](C(=O)O)C(C)C)[C@H](C)O)[C@H](C)O [BCL-26, FLMRQLDRLTQLAKLTPV] (H-[dF][dL][dM][dR][dQ][dL][dD][dR][dL][dT][dQ][dL][dA][dK][dL][dT][dP][dV]-OH; N-terminus and C-terminus assumed)	> 10000	tumor volume relative to vehicle (MCF7 breast cancer cells; 12.5 mg/kg s.c. three times weekly for three weeks, dosing from day 2, starting tumor about 25 mm^3, p<0.0001): significantly reduced tumor volume
CC(C)C[C@@H](NC(=O)[C@@H](Cc1c[nH]c2ccccc12)NC(=O)[C@H](N)Cc1c[nH]c2ccccc12)C(=O)N[C@H](C)C(=O)N[C@H](CCCNC(=N)N)C(=O)N[C@H](CCC(N)=O)C(=O)N[C@H](CC(C)C)C(=O)N[C@H](C)C(=O)N[C@H](CCCNC(=N)N)C(=O)N[C@H](CC(C)C)C(=O)N[C@H](C)C(=O)N[C@H](CCC(N)=O)C(=O)N[C@H](CC(C)C)C(=O)N[C@H](C)C(=O)N[C@H](CCCCN)C(=O)N[C@H](CC(C)C)C(=O)N[C@@H](C(=O)N1CCC[C@@H]1C(=O)N[C@@H](C(=O)O)C(C)C)[C@H](C)O [BCL-27, WWLARQLARLAQLAKLTPV] (H-[dW][dW][dL][dA][dR][dQ][dL][dA][dR][dL][dA][dQ][dL][dA][dK][dL][dT][dP][dV]-OH; N-terminus and C-terminus assumed)	2000 to 10000	tumor volume relative to vehicle and to peptide control BCL-134 (MCF7 breast cancer cells): significantly reduced tumor volume
CC(C)C[C@@H](NC(=O)[C@@H](CCCNC(=N)N)NC(=O)[C@@H](C)NC(=O)[C@@H](CC(C)C)NC(=O)[C@@H](CCC(N)=O)NC(=O)[C@@H](CCCNC(=N)N)NC(=O)[C@@H](C)NC(=O)[C@@H](CC(C)C)NC(=O)[C@@H](Cc1c[nH]c2ccccc12)NC(=O)[C@@H](Cc1c[nH]c2ccccc12)NC(=O)CNC(=O)[C@@H](CCCNC(=N)N)NC(=O)CNC(=O)[C@@H](CC(=O)O)NC(=O)[C@@H](CO)NC(=O)[C@H]1CCCN1)C(=O)N[C@H](C)C(=O)N[C@H](CCC(N)=O)C(=O)N[C@H](CC(C)C)C(=O)N[C@H](C)C(=O)N[C@H](CCCCN)C(=O)N[C@H](CC(C)C)C(=O)N[C@@H](C(=O)N1CCC[C@@H]1C(=O)N[C@@H](C(=O)O)C(C)C)[C@H](C)O [BCL-87] (H-[dP][dS][dD]G[dR]G[dW][dW][dL][dA][dR][dQ][dL][dA][dR][dL][dA][dQ][dL][dA][dK][dL][dT][dP][dV]-OH; N-terminus and C-terminus assumed)	2000 to 10000	tumor volume relative to vehicle and to peptide control BCL-134 (MCF7 breast cancer cells): significantly reduced tumor volume; tumor volume relative to vehicle (MCF7 breast cancer cells; 5 mg/kg s.c. three times weekly for three weeks, dosing from day 21, starting tumor about 470 mm^3, p<0.005): significantly reduced tumor volume
CCCCCCCC(=O)N1CCC[C@@H]1C(=O)N[C@H](CO)C(=O)N[C@H](CC(=O)O)C(=O)NCC(=O)N[C@H](CCCNC(=N)N)C(=O)NCC(=O)N[C@H](Cc1c[nH]c2ccccc12)C(=O)N[C@H](Cc1c[nH]c2ccccc12)C(=O)N[C@H](CC(C)C)C(=O)N[C@@H](C(=O)N[C@H](CCCNC(=N)N)C(=O)N[C@H](CCC(N)=O)C(=O)N[C@H](CC(C)C)C(=O)N[C@H](C)C(=O)N[C@H](CCCNC(=N)N)C(=O)N[C@H](CC(C)C)C(=O)N[C@H](C)C(=O)N[C@H](CCC(N)=O)C(=O)N[C@H](CC(C)C)C(=O)N[C@H](C)C(=O)N[C@H](CCCCN)C(=O)N[C@H](CC(C)C)C(=O)N[C@@H](C(=O)N1CCC[C@@H]1C(=O)N[C@@H](C(=O)O)C(C)C)[C@H](C)O)C(C)C [BCL-136a] (Octanoyl-[dP][dS][dD]G[dR]G[dW][dW][dL][dV][dR][dQ][dL][dA][dR][dL][dA][dQ][dL][dA][dK][dL][dT][dP][dV]-OH; C-terminus assumed)	< 2000	–
CC(C)C[C@@H](NC(=O)[C@@H](CCCN)NC(=O)[C@@H](C)NC(=O)[C@@H](CC(C)C)NC(=O)[C@@H](CCC(N)=O)NC(=O)[C@@H](CCCN)NC(=O)[C@@H](C)NC(=O)[C@@H](CC(C)C)NC(=O)[C@@H](Cc1c[nH]c2ccccc12)NC(=O)[C@@H](Cc1c[nH]c2ccccc12)NC(=O)CNC(=O)[C@@H](CCCNC(=N)N)NC(=O)CNC(=O)[C@@H](CC(=O)O)NC(=O)[C@@H](CO)NC(=O)[C@H]1CCCN1)C(=O)N[C@H](C)C(=O)N[C@H](CCC(N)=O)C(=O)N[C@H](CC(C)C)C(=O)N[C@H](C)C(=O)N[C@H](CCCN)C(=O)N[C@H](CC(C)C)C(=O)N[C@@H](C(=O)N1CCC[C@@H]1C(=O)N[C@@H](C(=O)O)C(C)C)[C@H](C)O [BCL-137] (H-[dP][dS][dD]G[dR]G[dW][dW][dL][dA][dOrn][dQ][dL][dA][dOrn][dL][dA][dQ][dL][dA][dOrn][dL][dT][dP][dV]-OH; N-terminus and C-terminus assumed)	< 2000	–
CCCCCCCC(=O)N[C@H](CC(C)C)C(=O)N[C@@H](C(=O)N[C@H](CCCNC(=N)N)C(=O)N[C@H](CCC(N)=O)C(=O)N[C@H](CC(C)C)C(=O)N[C@H](C)C(=O)N[C@H](CCCNC(=N)N)C(=O)N[C@H](CC(C)C)C(=O)N[C@H](C)C(=O)N[C@H](CCC(N)=O)C(=O)N[C@H](CC(C)C)C(=O)N[C@H](C)C(=O)N[C@H](CCCCN)C(=O)N[C@H](CC(C)C)C(=O)N[C@@H](C(=O)N1CCC[C@@H]1C(=O)N[C@@H](C(=O)O)C(C)C)[C@H](C)O)C(C)C [BCL-138] (Octanoyl-[dL][dV][dR][dQ][dL][dA][dR][dL][dA][dQ][dL][dA][dK][dL][dT][dP][dV]-OH; C-terminus assumed)	> 80000	cytotoxic activity [1]: Lack of cytotoxic activity
CC(C)C[C@@H](NC(=O)[C@@H](CCCNC(=N)N)NC(=O)[C@@H](C)NC(=O)[C@@H](CC(C)C)NC(=O)[C@@H](CCC(N)=O)NC(=O)[C@@H](CCCNC(=N)N)NC(=O)[C@H](NC(=O)[C@@H](CC(C)C)NC(=O)[C@@H](Cc1c[nH]c2ccccc12)NC(=O)[C@H](Cc1c[nH]c2ccccc12)NC(=O)CNC(=O)[C@@H](CCCNC(=N)N)NC(=O)CNC(=O)[C@@H](CC(=O)O)NC(=O)[C@@H](CO)NC(=O)[C@H]1CCCN1)C(C)C)C(=O)N[C@H](C)C(=O)N[C@H](CCC(N)=O)C(=O)N[C@H](CC(C)C)C(=O)N[C@H](C)C(=O)N[C@H](CCCCN)C(=O)N[C@H](CC(C)C)C(=O)N[C@@H](C(=O)N1CCC[C@@H]1C(=O)N[C@@H](C(=O)O)C(C)C)[C@H](C)O [BCL-139] (H-[dP][dS][dD]G[dR]GW[dW][dL][dV][dR][dQ][dL][dA][dR][dL][dA][dQ][dL][dA][dK][dL][dT][dP][dV]-OH; N-terminus and C-terminus assumed)	< 2000	–
YGRKKRRQRRRLSQEQLEHRERSLQTLRDIQRMLF [BCL-21, TAT cell-penetrating region plus native BCL9 HD2 domain]	–	anti-proliferative activity [2]: inefficient at inhibiting cell proliferation
